Laboratory results: patent publication US20230413811A1 (priority 2020, published 2023)
Where two headings read alike, the source gives them in different places.

Legend:
[1] = Water solubility at different pH values; assay type: physicochemical; conditions: for solubility: water
Excerpt: The results are compiled in the table here below:

[2] = system: Phytophthora infestans strain Pi96; assay type: in vivo
[3] = 0.1 M carbonate buffer in water, aqueous buffer, pH 7, buffer 0.1M Carbonate
[4] = 0.1 M citrate buffer in water, aqueous buffer, pH 4, buffer 0.1M Citrate
[5] = 0.1 M glycine buffer in water, aqueous buffer, pH 10, buffer 0.1M Glycine

Compound: CCCCCCCCCCCCCCCCCC[S+](C)C.[I-] [ODS-I, octadecyl dimethyl sulfonium iodide, reference compound]
- solubility [1, 3]: 80 µg/mL
- solubility [1, 4]: 290 µg/mL
- solubility [1, 5]: 30 µg/mL
- solubility ([1]; pH 5.5, aqueous buffer): 120 µg/mL

Compound: CCCCCCCCCCCCCCCCCC[S+](C)C.[Cl-] [ODS-Cl, octadecyl dimethyl sulfonium chloride]
- Disease Severity Index (%) ([2]; 10 ppm, 3 dpi): 10.3%
- Disease Severity Index (%) ([2]; 10 ppm, 5 dpi): 18.3%
- Disease Severity Index (%) ([2]; 10 ppm, 7 dpi): 39.7%
- Disease Severity Index (%) ([2]; 10 ppm, 10 dpi): 97.8%
- Fungicide efficacy (%) at 10 dpi ([2]; 10 ppm, 10 dpi): 0.0%
- Disease Severity Index (%) ([2]; 50 ppm, 3 dpi): 8.7%
- Disease Severity Index (%) ([2]; 50 ppm, 5 dpi): 15.6%
- Disease Severity Index (%) ([2]; 50 ppm, 7 dpi): 40.0%
- Disease Severity Index (%) ([2]; 50 ppm, 10 dpi): 89.4%
- Fungicide efficacy (%) at 10 dpi ([2]; 50 ppm, 10 dpi): 0.0%
- Disease Severity Index (%) ([2]; 100 ppm, 3 dpi): 5.5%
- Disease Severity Index (%) ([2]; 100 ppm, 5 dpi): 11.1%
- Disease Severity Index (%) ([2]; 100 ppm, 7 dpi): 27.8%
- Disease Severity Index (%) ([2]; 100 ppm, 10 dpi): 71.8%
- Fungicide efficacy (%) at 10 dpi ([2]; 100 ppm, 10 dpi): 12.5%
- Disease Severity Index (%) ([2]; 500 ppm, 3 dpi): 0.0%
- Disease Severity Index (%) ([2]; 500 ppm, 5 dpi): 0.0%
- Disease Severity Index (%) ([2]; 500 ppm, 7 dpi): 0.0%
- Disease Severity Index (%) ([2]; 500 ppm, 10 dpi): 0.0%
- Fungicide efficacy (%) at 10 dpi ([2]; 500 ppm, 10 dpi): 100.0%
- Disease Severity Index (%) ([2]; 1000 ppm, 3 dpi): 0.0%
- Disease Severity Index (%) ([2]; 1000 ppm, 5 dpi): 0.0%
- Disease Severity Index (%) ([2]; 1000 ppm, 7 dpi): 0.0%
- Disease Severity Index (%) ([2]; 1000 ppm, 10 dpi): 0.0%
- Fungicide efficacy (%) at 10 dpi ([2]; 1000 ppm, 10 dpi): 100.0%
- control of the disease (late blight) ([2]; 1000 ppm, preventive treatment): full control
- dose from which efficient to protect potato leaves against late blight ([2]; preventive treatment, detached potato leaves): ≥ 100 ppm
- solubility [1, 3]: 280 µg/mL
- solubility [1, 4]: 1320 µg/mL
- solubility [1, 5]: 940 µg/mL
- solubility in water compared with octadecyl dimethyl sulfonium iodide ([1]; comparison chloride vs iodide): higher solubility in water
- pH at which the water solubility has a minimum ([1]; solubility increases below and above this pH): ~7.0
- solubility ([1]; pH 2.2, aqueous buffer): 1650 µg/mL
